Assay [1] concerns the target T1, HiBit-BRM fusion protein (Homo sapiens, UniProt P51531).
T1 construct: expressed in transfected cells
The assay can be described thus: HiBiT-BRM cell-based degradation assay (Nano-Glo HiBiT Lytic Detection, 24 h). As to conditions: HeLa cells expressing HiBiT-BRM; for DC50: read-out: BRM HiBit Degradation IC50; for BRM HiBit Degradation Maximum measured: top dose 30 μM. Summed up:
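HeLa cells stably expressing HiBiT-BRM were dosed with compounds (10-point 3-fold dilutions, 30 μM final top dose, duplicate) for 24 h. HiBiT signal was read by lytic LgBiT complementation luminescence. Percent degradation was normalised to DMSO (high control) and 2 μM of a reference BRM/BRG1 degrader (low control).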
(In general: With HiBiT, luminescence reflects the tagged protein that the partner subunit can reach.)

Assay [2] has as its target T2, HiBit-BRG1 fusion protein (Homo sapiens, UniProt P51532).
T2 construct: expressed in transfected cells
The assay can be described thus: HiBiT-BRG1 cell-based degradation assay (Nano-Glo HiBiT Lytic Detection, 24 h). The following applies: HeLa cells expressing HiBit-BRG1 and LgBit; for DC50: read-out: BRG1 HiBit Degradation IC50; for Dmax: HeLa, top dose 30 μM, read-out: BRG1 HiBit Degradation Maximum measured. Summed up: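 Stable HeLa line expressing HiBiT-BRG1 and LgBiT, seeded at 5000 cells/well; luminescence read after lytic Nano-Glo HiBiT reagent and 10 min shaking at RT. % degradation normalised between DMSO (high control) and 2 μM reference BRM/BRG1 degrader (low control).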

T1 sequence (P51531 whole entry, the tested form may be a part): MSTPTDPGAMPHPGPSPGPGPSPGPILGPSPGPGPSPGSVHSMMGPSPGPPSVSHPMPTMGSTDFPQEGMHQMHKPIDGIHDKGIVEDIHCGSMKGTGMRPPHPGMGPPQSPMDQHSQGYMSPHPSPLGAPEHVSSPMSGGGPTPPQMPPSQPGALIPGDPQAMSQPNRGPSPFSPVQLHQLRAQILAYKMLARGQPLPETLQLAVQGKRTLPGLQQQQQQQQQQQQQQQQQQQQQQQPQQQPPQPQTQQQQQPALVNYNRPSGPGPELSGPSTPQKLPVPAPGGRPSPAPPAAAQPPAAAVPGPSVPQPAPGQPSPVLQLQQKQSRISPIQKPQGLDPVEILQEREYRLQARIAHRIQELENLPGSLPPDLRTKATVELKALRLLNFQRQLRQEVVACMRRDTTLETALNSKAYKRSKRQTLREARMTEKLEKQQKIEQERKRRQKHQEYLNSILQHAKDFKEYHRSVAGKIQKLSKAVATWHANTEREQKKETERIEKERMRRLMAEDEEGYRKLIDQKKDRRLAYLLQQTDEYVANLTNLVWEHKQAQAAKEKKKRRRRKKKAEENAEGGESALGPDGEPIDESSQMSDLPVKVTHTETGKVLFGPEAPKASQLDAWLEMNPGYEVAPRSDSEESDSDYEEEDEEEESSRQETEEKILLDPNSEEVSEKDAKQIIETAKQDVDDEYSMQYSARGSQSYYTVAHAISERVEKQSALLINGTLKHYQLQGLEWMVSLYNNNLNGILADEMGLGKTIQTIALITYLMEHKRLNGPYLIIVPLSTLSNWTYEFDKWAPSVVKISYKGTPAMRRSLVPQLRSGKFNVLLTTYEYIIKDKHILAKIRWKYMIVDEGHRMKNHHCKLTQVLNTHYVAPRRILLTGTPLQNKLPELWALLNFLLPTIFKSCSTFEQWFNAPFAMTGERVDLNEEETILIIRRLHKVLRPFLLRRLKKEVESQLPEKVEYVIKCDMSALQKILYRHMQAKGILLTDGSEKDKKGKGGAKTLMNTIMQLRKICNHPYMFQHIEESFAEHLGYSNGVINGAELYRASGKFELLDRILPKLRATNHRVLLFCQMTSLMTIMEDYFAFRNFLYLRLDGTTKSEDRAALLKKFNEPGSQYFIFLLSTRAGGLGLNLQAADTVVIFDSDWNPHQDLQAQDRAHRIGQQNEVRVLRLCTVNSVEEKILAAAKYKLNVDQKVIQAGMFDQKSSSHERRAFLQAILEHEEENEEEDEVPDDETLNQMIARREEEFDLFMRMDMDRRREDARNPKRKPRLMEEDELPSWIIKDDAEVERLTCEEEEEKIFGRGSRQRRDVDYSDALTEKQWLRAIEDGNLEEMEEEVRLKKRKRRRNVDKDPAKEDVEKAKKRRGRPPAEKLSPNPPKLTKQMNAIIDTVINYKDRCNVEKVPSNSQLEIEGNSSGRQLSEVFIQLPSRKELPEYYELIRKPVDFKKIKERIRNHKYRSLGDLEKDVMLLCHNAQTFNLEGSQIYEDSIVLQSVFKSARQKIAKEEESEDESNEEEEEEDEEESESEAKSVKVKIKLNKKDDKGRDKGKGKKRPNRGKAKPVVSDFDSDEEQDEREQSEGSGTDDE
T2 sequence (P51532 whole entry, the tested form may be a part): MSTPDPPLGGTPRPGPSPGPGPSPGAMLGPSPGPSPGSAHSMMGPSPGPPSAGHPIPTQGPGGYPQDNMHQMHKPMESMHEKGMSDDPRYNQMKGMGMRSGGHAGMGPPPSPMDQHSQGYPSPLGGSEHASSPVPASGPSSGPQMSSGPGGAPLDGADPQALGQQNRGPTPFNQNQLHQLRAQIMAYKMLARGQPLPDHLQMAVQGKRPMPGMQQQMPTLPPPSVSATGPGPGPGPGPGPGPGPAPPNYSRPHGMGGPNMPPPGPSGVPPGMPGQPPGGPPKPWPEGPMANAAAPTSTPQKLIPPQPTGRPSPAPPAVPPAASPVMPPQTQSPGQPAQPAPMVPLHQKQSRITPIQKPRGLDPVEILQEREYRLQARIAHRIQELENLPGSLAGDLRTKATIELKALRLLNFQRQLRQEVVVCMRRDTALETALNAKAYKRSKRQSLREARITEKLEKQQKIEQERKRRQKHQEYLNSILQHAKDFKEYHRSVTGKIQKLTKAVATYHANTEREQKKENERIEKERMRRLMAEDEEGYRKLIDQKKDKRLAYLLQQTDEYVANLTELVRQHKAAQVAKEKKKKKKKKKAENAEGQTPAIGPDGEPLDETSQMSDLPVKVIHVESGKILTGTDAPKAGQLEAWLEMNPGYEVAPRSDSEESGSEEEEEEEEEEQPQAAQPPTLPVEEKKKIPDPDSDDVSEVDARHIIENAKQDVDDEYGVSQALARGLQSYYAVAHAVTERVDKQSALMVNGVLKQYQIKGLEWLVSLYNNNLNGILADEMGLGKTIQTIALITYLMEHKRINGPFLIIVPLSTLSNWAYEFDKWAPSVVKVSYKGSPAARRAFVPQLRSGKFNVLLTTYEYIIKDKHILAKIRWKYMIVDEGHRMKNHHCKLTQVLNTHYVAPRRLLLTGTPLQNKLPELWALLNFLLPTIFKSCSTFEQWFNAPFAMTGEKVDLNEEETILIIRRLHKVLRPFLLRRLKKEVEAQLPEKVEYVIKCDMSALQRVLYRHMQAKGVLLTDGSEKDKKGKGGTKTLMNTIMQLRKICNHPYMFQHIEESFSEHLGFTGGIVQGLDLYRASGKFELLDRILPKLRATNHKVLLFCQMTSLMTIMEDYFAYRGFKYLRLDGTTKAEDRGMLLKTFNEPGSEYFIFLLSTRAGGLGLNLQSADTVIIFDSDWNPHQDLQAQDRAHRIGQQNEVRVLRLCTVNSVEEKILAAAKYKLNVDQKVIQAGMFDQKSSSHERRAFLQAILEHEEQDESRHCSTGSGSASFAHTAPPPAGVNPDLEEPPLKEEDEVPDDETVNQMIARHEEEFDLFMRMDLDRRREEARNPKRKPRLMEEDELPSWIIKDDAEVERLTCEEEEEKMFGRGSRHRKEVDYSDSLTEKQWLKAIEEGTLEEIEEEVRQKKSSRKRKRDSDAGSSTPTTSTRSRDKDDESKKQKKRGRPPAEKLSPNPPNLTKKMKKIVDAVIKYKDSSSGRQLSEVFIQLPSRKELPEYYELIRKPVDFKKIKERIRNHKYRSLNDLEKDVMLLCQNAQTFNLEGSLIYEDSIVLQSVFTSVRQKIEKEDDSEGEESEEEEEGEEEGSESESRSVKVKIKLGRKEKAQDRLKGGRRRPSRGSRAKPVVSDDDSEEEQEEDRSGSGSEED

Regarding `CS(=O)(=O)n1ccc(C(=O)N[C@@H](COCc2ccc(C(=O)NCCCCS(=O)(=O)CCCNc3cccc4c3C(=O)N(C3CCC(=O)NC3=O)C4=O)cc2)C(=O)Nc2nc(-c3ccccc3)cs2)c1` (stereo partly drawn) [Compound 248, N-[4-(3-[[2-(2,6-dioxopiperidin-3-yl)-1,3-dioxoisoindol-4-yl]amino]propanesulfonyl)butyl]-4-[[(2S)-2-[(1-methanesulfonylpyrrol-3-yl)formamido]-2-[(4-phenyl-1,3-thiazol-2-yl)carbamoyl]ethoxy]methyl]benzamide], in assay [1], the DC50 is 1 to 10 µM; the “BRM HiBit Degradation Maximum measured” value is “B (‘B’ = Maximum degradation ≥50% and ≤75%)”. Also, in assay [2], the DC50 fell in the range of 0.1 to 1 µM and the Dmax was in the range of 50 to 75%.

In the case of `Cc1ncsc1-c1ccc(CNC(=O)[C@@H]2C[C@@H](O)CN2C(=O)[C@@H](NC(=O)COCCOCCNC(=O)CCCOCC[C@H](NC(=O)c2ccn(S(C)(=O)=O)c2)C(=O)Nc2nc(-c3ccccc3)cs2)C(C)(C)C)cc1` [Compound 249, (2S,4R)-4-hydroxy-1-[(2S)-2-[2-[2-(2-[4-[(3S)-3-[(1-methanesulfonylpyrrol-3-yl)formamido]-3-[(4-phenyl-1,3-thiazol-2-yl)carbamoyl]propoxy]butanamido]ethoxy)ethoxy]acetamido]-3,3-dimethylbutanoyl]-N-[[4-(4-methyl-1,3-thiazol-5-yl)phenyl]methyl]pyrrolidine-2-carboxamide], in assay [1], the DC50 was over 10 µM and the “BRM HiBit Degradation Maximum measured” value is given as “C (‘C’ = Maximum degradation <50%)”. For the same compound, in assay [2], the DC50 is over 10 µM and the Dmax is under 50%.

In the case of `Cc1ncsc1-c1ccc(CNC(=O)[C@H]2C[C@@H](O)CN2C(=O)[C@@H](NC(=O)COCCOCCOCCNC(=O)CCCOCC[C@H](NC(=O)c2ccn(S(C)(=O)=O)c2)C(=O)Nc2nc(-c3ccccc3)cs2)C(C)(C)C)cc1` [Compound 250, (2R,4R)-4-hydroxy-1-[(2S)-2-(2-[2-[2-(2-[4-[(3S)-3-[(1-methanesulfonylpyrrol-3-yl)formamido]-3-[(4-phenyl-1,3-thiazol-2-yl)carbamoyl]propoxy]butanamido]ethoxy)ethoxy]ethoxy]acetamido)-3,3-dimethylbutanoyl]-N-[[4-(4-methyl-1,3-thiazol-5-yl)phenyl]methyl]pyrrolidine-2-carboxamide], in assay [1], the DC50 was over 10 µM and the “BRM HiBit Degradation Maximum measured” value is “C (‘C’ = Maximum degradation <50%)”. In addition, in assay [2], the DC50 is over 10 µM and the Dmax was under 50%.

Consider `Cc1ncsc1-c1ccc(CNC(=O)[C@@H]2C[C@@H](O)CN2C(=O)[C@@H](NC(=O)CCCCCNC(=O)CCCOCC[C@H](NC(=O)c2ccn(S(C)(=O)=O)c2)C(=O)Nc2nc(-c3ccccc3)cs2)C(C)(C)C)cc1` [Compound 251, (2S,4R)-4-hydroxy-1-[(2S)-2-(6-[4-[(3S)-3-[(1-methanesulfonylpyrrol-3-yl)formamido]-3-[(4-phenyl-1,3-thiazol-2-yl)carbamoyl]propoxy]butanamido]hexanamido)-3,3-dimethylbutanoyl]-N-[[4-(4-methyl-1,3-thiazol-5-yl)phenyl]methyl]pyrrolidine-2-carboxamide], for which, in assay [1], the DC50 was over 10 µM and the “BRM HiBit Degradation Maximum measured” value is on record as “C (‘C’ = Maximum degradation <50%)”. Further, in assay [2], the DC50 is over 10 µM and the Dmax is under 50%.

With `CN(CCNC(=O)CCCOCC[C@H](NC(=O)c1ccn(S(C)(=O)=O)c1)C(=O)Nc1nc(-c2ccccc2)cs1)CCNC(=O)COc1cccc2c1C(=O)N(C1CCC(=O)NC1=O)C2=O.O=CO` (stereo partly drawn) [Compound 252, (2S)-4-[3-[(2-[[2-(2-[[2-(2,6-dioxopiperidin-3-yl)-1,3-dioxoisoindol-4-yl]oxy]acetamido)ethyl](methyl)amino]ethyl)carbamoyl]propoxy]-2-[(1-methanesulfonylpyrrol-3-yl)formamido]-N-(4-phenyl-1,3-thiazol-2-yl)butanamide; formic acid], in assay [1], the DC50 was over 10 µM and the “BRM HiBit Degradation Maximum measured” value is recorded as “C (‘C’ = Maximum degradation <50%)”. Also, in assay [2], the DC50 is over 10 µM and the Dmax is under 50%.

Consider `CS(=O)(=O)n1ccc(C(=O)N[C@@H](CCOCCCC(=O)NCCS(=O)(=O)CCNc2cccc3c2C(=O)N(C2CCC(=O)NC2=O)C3=O)C(=O)Nc2nc(-c3ccccc3)cs2)c1` (stereo partly drawn) [Compound 253, (2S)-4-(3-[[2-(2-[[2-(2,6-dioxopiperidin-3-yl)-1,3-dioxoisoindol-4-yl]amino]ethanesulfonyl)ethyl]carbamoyl]propoxy)-2-[(1-methanesulfonylpyrrol-3-yl)formamido]-N-(4-phenyl-1,3-thiazol-2-yl)butanamide], for which, in assay [1], the DC50 is over 10 µM and the “BRM HiBit Degradation Maximum measured” value is reported as “C (‘C’ = Maximum degradation <50%)”. Moreover, in assay [2], the DC50 is over 10 µM and the Dmax was under 50%.

For `CS(=O)(=O)n1ccc(C(=O)N[C@@H](CCOCCCC(=O)N2CCN(CCCCCOc3ccc4c(c3)C(=O)N(C3CCC(=O)NC3=O)C4=O)CC2)C(=O)Nc2nc(-c3ccccc3)cs2)c1` (stereo partly drawn) [Compound 254, (2S)-4-[4-[4-(5-[[2-(2,6-dioxopiperidin-3-yl)-1,3-dioxoisoindol-5-yl]oxy]pentyl)piperazin-1-yl]-4-oxobutoxy]-2-[(1-methanesulfonylpyrrol-3-yl)formamido]-N-(4-phenyl-1,3-thiazol-2-yl)butanamide], in assay [1], the DC50 was over 10 µM and the “BRM HiBit Degradation Maximum measured” value was “C (‘C’ = Maximum degradation <50%)”. Moreover, in assay [2], the DC50 is over 10 µM and the Dmax is under 50%.

Take `CS(=O)(=O)n1ccc(C(=O)N[C@@H](CCOCCCC(=O)N2CCN(CCCOc3ccc4c(c3)C(=O)N(C3CCC(=O)NC3=O)C4=O)CC2)C(=O)Nc2nc(-c3ccccc3)cs2)c1` (stereo partly drawn) [Compound 255, (2S)-4-[4-[4-(3-[[2-(2,6-dioxopiperidin-3-yl)-1,3-dioxoisoindol-5-yl]oxy]propyl)piperazin-1-yl]-4-oxobutoxy]-2-[(1-methanesulfonylpyrrol-3-yl)formamido]-N-(4-phenyl-1,3-thiazol-2-yl)butanamide]: in assay [1], the DC50 was over 10 µM and the “BRM HiBit Degradation Maximum measured” value is recorded as “C (‘C’ = Maximum degradation <50%)”. Besides, in assay [2], the DC50 was over 10 µM and the Dmax is under 50%.

For `CS(=O)(=O)n1ccc(C(=O)N[C@@H](CCOCCCC(=O)N2CC(Oc3ccc4c(c3)C(=O)N(C3CCC(=O)NC3=O)C4=O)C2)C(=O)Nc2nc(-c3ccccc3)cs2)c1` (stereo partly drawn) [Compound 256, (2S)-4-[4-(3-[[2-(2,6-dioxopiperidin-3-yl)-1,3-dioxoisoindol-5-yl]oxy]azetidin-1-yl)-4-oxobutoxy]-2-[(1-methanesulfonylpyrrol-3-yl)formamido]-N-(4-phenyl-1,3-thiazol-2-yl)butanamide], in assay [1], the DC50 was over 10 µM and the “BRM HiBit Degradation Maximum measured” value was “C (‘C’ = Maximum degradation <50%)”. Further, in assay [2], the DC50 is over 10 µM and the Dmax was under 50%.

On to `CS(=O)(=O)n1ccc(C(=O)N[C@@H](CCOCCCC(=O)N2CCC(CCCCN3CCN(c4ccc5c(c4)C(=O)N(C4CCC(=O)NC4=O)C5=O)CC3)CC2)C(=O)Nc2nc(-c3ccccc3)cs2)c1` (stereo partly shown) [Compound 257], for which, in assay [1], the DC50 was over 10 µM and the “BRM HiBit Degradation Maximum measured” value was “C (‘C’ = Maximum degradation <50%)”. Further, in assay [2], the DC50 was over 10 µM and the Dmax is under 50%.

For the compound `CS(=O)(=O)n1ccc(C(=O)N[C@@H](CCOCCCC(=O)NCCOCCOCCOCCNC(=O)COc2cccc3c2C(=O)N(C2CCC(=O)NC2=O)C3=O)C(=O)Nc2nc(-c3ccccc3)cs2)c1` (stereo partly drawn) [Compound 258, (2S)-4-(3-[[2-(2-[2-[2-(2-[[2-(2,6-dioxopiperidin-3-yl)-1,3-dioxoisoindol-4-yl]oxy]acetamido)ethoxy]ethoxy]ethoxy)ethyl]carbamoyl]propoxy)-2-[(1-methanesulfonylpyrrol-3-yl)formamido]-N-(4-phenyl-1,3-thiazol-2-yl)butanamide], in assay [1], the DC50 is over 10 µM and the “BRM HiBit Degradation Maximum measured” value is given as “C (‘C’ = Maximum degradation <50%)”. Moreover, in assay [2], the DC50 was over 10 µM and the Dmax is under 50%.

With `CS(=O)(=O)n1ccc(C(=O)N[C@@H](CCOCCCC(=O)N2CC(COc3cccc4c3C(=O)N(C3CCC(=O)NC3=O)C4=O)C2)C(=O)Nc2nc(-c3ccccc3)cs2)c1` (stereo partly drawn) [Compound 259, (2S)-4-[4-[3-([[2-(2,6-dioxopiperidin-3-yl)-1,3-dioxoisoindol-4-yl]oxy]methyl)azetidin-1-yl]-4-oxobutoxy]-2-[(1-methanesulfonylpyrrol-3-yl)formamido]-N-(4-phenyl-1,3-thiazol-2-yl)butanamide], in assay [1], the DC50 is over 10 µM and the “BRM HiBit Degradation Maximum measured” value is “C (‘C’ = Maximum degradation <50%)”. Further, in assay [2], the DC50 is over 10 µM and the Dmax was under 50%.

As for `CS(=O)(=O)n1ccc(C(=O)N[C@@H](CCOCCCC(=O)N2CC(COc3ccc4c(c3)C(=O)N(C3CCC(=O)NC3=O)C4=O)C2)C(=O)Nc2nc(-c3ccccc3)cs2)c1` (stereo partly drawn) [Compound 260, (2S)-4-[4-[3-([[2-(2,6-dioxopiperidin-3-yl)-1,3-dioxoisoindol-5-yl]oxy]methyl)azetidin-1-yl]-4-oxobutoxy]-2-[(1-methanesulfonylpyrrol-3-yl)formamido]-N-(4-phenyl-1,3-thiazol-2-yl)butanamide], in assay [1], the DC50 was over 10 µM and the “BRM HiBit Degradation Maximum measured” value was “C (‘C’ = Maximum degradation <50%)”. Besides, in assay [2], the DC50 is over 10 µM and the Dmax is under 50%.
